# Source: patent US12447121B2, “Composition for promoting the skin microbiome” (BEIERSDORF AG, priority 2020, dated 2025)
# “Also recorded” adds a separate entry of the source.
# Legend:
# skin microbiome = experiment: In vivo volunteer study: microbial colony count of skin microbiome samples; design: species or system human; details: applied in the form of a skin care composition to the facial skin (as worded in the summary)
# Protocol: An in vivo study with 31 volunteers was conducted to examine whether the growth-enhancing compounds that were found effective in the in vitro test can also promote cell growth of the microorganisms in the skin microbiome in vivo when applied to the skin in the form of a lotion. For this purpose, a carrier lotion was prepared to which the test compounds, i.e. the compounds identified as growth-enhancing in the in vitro assays of Example 1, were added. The test formulations were prepared by mixing the compounds to be tested into the carrier lotion. The test formulations were composed as follows: • Formulation 20: […] Carrier lotion+1% urea, 1% sodium Lactate, 1% caprylic/capric triglycerides […] For measuring the microbial colony count, the test site was rinsed with swabs ([…] GmbH, […], Germany) by 3×10 lanes using 2 ml rinsing buffer (12.49 g/L Na2HPO; 0.63 g/L KH2PO4 in molecular grade H2O) in 15 ml Falcon tubes. The sample material was then plated within 60 minutes after collection on Columbia-Sheep-Blood-Tween (COST) agar plates and subsequently incubated. […] After incubation, the bacterial colonies on agar plates were counted using the Countermat Flash.
# S. epidermidis [1] = experiment: In vitro growth assay (plating, colony count); format: cell-based; details: added to low nutrient medium, 37° C., plated and counted; FIGS. 1 and 2
# Protocol: Potential growth-enhancing compounds that are effective in the stabilization of the microbiome were tested by the following in vitro assay. Overnight cultures of S. epidermidis is inoculated in 20 ml CASO medium and incubated at 37° C. The culture was then diluted and adjusted to an OD600 of 0.25. From this suspension, the starting culture is prepared with a concentration of 5×10^5 CFU/ml by a 1:200 dilution in CASO deficiency medium. Subsequently, solutions containing the different active ingredients were mixed with the start cultures and incubated in a thermal mixer at 37° C. by shaking. Samples are taken at the respective time points for testing, diluted with NaCl and plated out on CASO plates using the spiral plater. The plates are incubated for 24 h at 37° C. and then counted.
# S. epidermidis [2] = experiment: In vitro growth assay (OD, absorption at 600 nm); format: cell-based; details: CASO deficiency medium
# Protocol: Overnight cultures of S. epidermidis were inoculated in 20 ml CASO medium and incubated at 37° C. The culture was then diluted and adjusted to an OD600 of 0.25. From this suspension, the starting culture is prepared with a concentration of 5×10^5 CFU/ml by a 1:200 dilution in CASO deficiency medium. Subsequently, solutions containing the different nitrogen, carbon, and lipid sources were mixed with the start cultures and 200 μl/well were pipetted into a 96 well flat transparent plate, at least in triplets. The plate was placed in a Tecan Reader at 37° C. and Absorption was measured at 600 nm every hour over a period of 24-30 h.
Molecule,cell number of the resident bacteria (skin microbiome),growth of S. epidermidis within 24 hours (S. epidermidis [1]),growth of S. epidermidis (summary in words of Tables 2 and 3) (S. epidermidis [2])
CC(O)C(=O)O (centres unmarked) [lactic acid],increase,,
"CC(O)C(=O)O (centres unmarked) [Lactate, lactate]",,significant growth; also recorded: significantly promotes the growth,support the growth
maltodextrin,,,support the growth
"OC[C@H]1O[C@@](CO)(O[C@H]2O[C@H](CO)[C@@H](O)[C@H](O)[C@H]2O)[C@@H](O)[C@@H]1O [Sucrose, saccharose]",,,support the growth
"OC[C@H]1O[C@H](O[C@H]2[C@H](O)[C@@H](O)C(O)O[C@@H]2CO)[C@H](O)[C@@H](O)[C@@H]1O (mixture of isomers) [Maltose, maltose]",,,support the growth
CC(=O)C(=O)O [pyruvic acid],significantly increase,,
"O=C(CO)[C@@H](O)[C@H](O)[C@H](O)CO [Fructose, fructose]",,,support the growth
